8 molecules from ChEMBL document CHEMBL2203037, “Synthesis and Anti-influenza A Virus Activity of 2,2-Dialkylamantadines and Related Compounds” (ACS Med Chem Lett, 2012) can be followed below.

The nature of series [1]: Cytotoxicity against dog MDCK cells assessed as cell morphology alterations. The format is cell-based, Canis lupus familiaris.
Series [2] has as its system Influenza A virus. The experiment in a line: Antiviral activity against Influenza A virus (A/X-31(H3N2)) infected in MDCK cells assessed as virus-induced cytopathic effect measured 3 days post infection by microscopic analysis. The format is functional, organism-based.
Series [3] concerns Influenza A virus. Nature of the series: Antiviral activity against Influenza A virus (A/Ishikawa/7/82 (H3N2)) infected in MDCK cells assessed as virus-induced cytopathic effect measured 3 days post infection by microscopic analysis. The class given is functional, organism-based. (In general: Cytopathic effects are the visible damage that an infection or toxin causes in cultured cells.)

The test system of series [4] is Influenza A virus. Nature of the series: Antiviral activity against amantadine-sensitive Influenza A virus (A/FM/1/47 (H1N1)) infected in MDCK cells assessed as virus-induced cytopathic effect measured 3 days post infection by microscopic analysis. The class given is functional, organism-based. The note with it: A/Fort Monmouth/1/1947(H1N1), 72 h.
For series [5], the system named is Influenza A virus. The experiment in a line: Antiviral activity against amantadine-sensitive Influenza A virus (A/Ned/378/05 (H1N1)) infected in MDCK cells assessed as virus-induced cytopathic effect measured 3 days post infection by microscopic analysis. The format is functional, organism-based. The note with it: 72 h.
In series [6] the test system is H3N2 subtype. The experiment in a line: Antiviral activity against Influenza A virus (A/HK/7/87 (H3N2)) infected in MDCK cells assessed as virus-induced cytopathic effect measured 3 days post infection by microscopic analysis. The class given is functional, organism-based. The note with it: A/Hong Kong/7/1987(H3N2), 72 h.
The nature of series [7]: Cytotoxicity against dog MDCK cells assessed as cell viability after 72 hrs by MTS assay. The format is cell-based, Canis lupus familiaris.
Series [8] concerns Mammalian orthoreovirus 1. The experiment in a line: Antiviral activity against Reovirus-1 by cell based assay. The format is functional, organism-based.
A further series concerns Coxsackievirus B4. Nature of the series: Antiviral activity against Coxsackievirus B4 by cell based assay. The format is functional, organism-based.
The test system of another series is Punta Toro virus. Nature of the series: Antiviral activity against Punta Toro virus by cell based assay. The class given is functional, organism-based.
A further series concerns Sindbis virus. Nature of the series: Antiviral activity against Sindbis virus by cell based assay. The format is functional, organism-based.
Series [9] deals with Vesicular stomatitis virus. The experiment in a line: Antiviral activity against Vesicular stomatitis virus by cell based assay. The format is functional, organism-based.
A further series concerns Human respirovirus 3. Nature of the series: Antiviral activity against Parainfluenza-3 virus by cell based assay. The class given is functional, organism-based.
Series [10] relates to Respiratory syncytial virus. Nature of the series: Antiviral activity against Respiratory syncytial virus by cell based assay. The class given is functional, organism-based.
The test system of the next series is Feline coronavirus. Nature of the series: Antiviral activity against Feline coronavirus by cell based assay. The class given is functional, organism-based.
The next series concerns Vaccinia virus. Nature of the series: Antiviral activity against Vaccinia virus by cell based assay. As to conditions: Orthopoxvirus vaccinia. The format is functional, organism-based.
The test system of a further series is Simplexvirus. Nature of the series: Antiviral activity against Herpes simplex virus by cell based assay. The class given is functional, organism-based.
Series [11] deals with H3N2 subtype. The experiment in a line: Antiviral activity against Influenza A virus (A/HK/7/87 (H3N2)) infected in MDCK cells assessed as virus-induced cytopathic effect by MTS assay. The format is functional, organism-based, A/Hong Kong/7/1987(H3N2).
Setting [12] is: Influenza A virus, A/Ishikawa/7/82 (H3N2), MDCK, 72 h.

Active and inactive are the calls of the source. The rule behind the calls is not given here. Where only a bound is given, the exact number is not on record here.

As for `CCOC(=O)C1=C[C@@H](OC(CC)CC)[C@H](NC(C)=O)[C@@H](N)C1` [OSELTAMIVIR], the MCC in series [1] is greater than 100 µM. Further, the EC50 (in general, the concentration at which the effect is half-maximal) in the series with Influenza A virus [2] (Influenza A virus, MDCK, 72 h) amounted to 0.11 µM; in the series on Influenza A virus [3] (setting [12]), 3 µM; in the series with Influenza A virus [4], 16 µM; with Influenza A virus [5], 1.5 µM; with H3N2 subtype [6] it was 29 µM.

In the case of `CCC1(CC)C2CC3CC(C2)CC1(N)C3`, the CC50 (as a rule, the concentration giving 50% cytotoxicity) at 72 h in series [7] was greater than 100 µM. Besides, the MCC in [1] is no less than 100 µM. Also, the result (in series [8]; with Coxsackievirus B4; in the series on Punta Toro virus; with Sindbis virus; in series [9]; in the series with Human respirovirus 3) was inactive. Also, the outcome (in series [10]; with Feline coronavirus; in the series on Vaccinia virus; in the series on Simplexvirus) was inactive. Also, the EC50 was greater than 100 µM in the series on Influenza A virus [2] (Influenza A virus, MDCK, 72 h); greater than 100 µM with Influenza A virus [3] (setting [12]); 7 µM in the series with Influenza A virus [4]; 4.7 µM in the series on Influenza A virus [5]; greater than 100 µM in the series on H3N2 subtype [11] (mdck); greater than 100 µM with H3N2 subtype [6].

In the case of `CC(=O)N[C@H]1[C@H]([C@H](O)[C@H](O)CO)OC(C(=O)O)=C[C@@H]1NC(=N)N` [ZANAMIVIR], in series [1], the MCC is greater than 200 µM. Further, the EC50 is 0.16 µM in the series with Influenza A virus [2] (mdck); 8.7 µM with Influenza A virus [3] (setting [12]); 5 µM in the series on Influenza A virus [4]; 1.7 µM with Influenza A virus [5]; 1.2 µM in the series with H3N2 subtype [6].

Take `CCC1(CC)C2CC3CC(C2)CC1(NC)C3`: the CC50 at 72 h in series [7] is greater than 100 µM. The MCC in series [1] is no less than 100 µM. Moreover, the result (in [8]; in the series on Coxsackievirus B4; with Punta Toro virus; with Sindbis virus; in series [9]; with Human respirovirus 3) was inactive. Besides, the result (in series [10]; in the series on Feline coronavirus; with Vaccinia virus; with Simplexvirus) was inactive. Moreover, the EC50 was greater than 100 µM in the series on Influenza A virus [2] (Influenza A virus, MDCK, 72 h); greater than 100 µM with Influenza A virus [3] (setting [12]); 9.3 µM with Influenza A virus [4]; 8.7 µM with Influenza A virus [5]; greater than 100 µM in the series with H3N2 subtype [11] (mdck); greater than 100 µM with H3N2 subtype [6].

Turning to `CCC1(CC)C2CC3CC(C2)CC1(N(C)C)C3`, the CC50 at 72 h in series [7] was greater than 100 µM. In series [1], the MCC is no less than 100 µM. The outcome (in series [8]; with Coxsackievirus B4; with Punta Toro virus; in the series with Sindbis virus; in series [9]; with Human respirovirus 3) was inactive. Also, the outcome (in series [10]; in the series on Feline coronavirus; in the series on Vaccinia virus; in the series on Simplexvirus) was inactive. Besides, the EC50 was greater than 100 µM in the series with Influenza A virus [2] (Influenza A virus, MDCK, 72 h); greater than 100 µM in the series on Influenza A virus [3] (setting [12]); 43 µM in the series on Influenza A virus [4]; 23 µM in the series on Influenza A virus [5]; greater than 100 µM with H3N2 subtype [11] (mdck); greater than 100 µM in the series with H3N2 subtype [6].

Take `CC(N)C12CC3CC(CC(C3)C1)C2` (configuration not stated) [RIMANTADINE]: the CC50 at 72 h in series [7] was greater than 100 µM. For the same molecule, the MCC in [1] is no less than 100 µM. The EC50 came out at 7 µM in the series on Influenza A virus [2] (mdck); 0.45 µM in the series with Influenza A virus [3] (setting [12]); 1.9 µM with Influenza A virus [4]; 0.5 µM in the series with Influenza A virus [5]; 0.17 µM in the series with H3N2 subtype [6].

Regarding `NC(=O)c1ncn([C@@H]2O[C@H](CO)[C@@H](O)[C@H]2O)n1` [RIBAVIRIN], in series [7], the CC50 at 72 h was no less than 20 µM. In addition, the MCC in series [1] is no less than 100 µM. Besides, the EC50 is 8.8 µM with Influenza A virus [2] (mdck); 8.8 µM in the series with Influenza A virus [3] (mdck); 10 µM in the series on Influenza A virus [4]; 7.6 µM with Influenza A virus [5]; 7 µM in the series with H3N2 subtype [11] (Influenza A virus, A/Hong Kong/7/1987(H3N2), MDCK); 7.7 µM in the series with H3N2 subtype [6].

For `NC12CC3CC(CC(C3)C1)C2` [AMANTADINE], in [7], the CC50 at 72 h was greater than 100 µM. In series [1], the MCC stood at 500 µM. Moreover, the EC50 in the series with Influenza A virus [2] (mdck) was determined as 61 µM; with Influenza A virus [3] (setting [12]), 11 µM; in the series on Influenza A virus [4], 5.1 µM; in the series with H3N2 subtype [6] it was 3.4 µM.
